In ChEMBL document CHEMBL4373664, “Importance of lipophilicity for potent anti-herpes simplex virus-1 activity of α-hydroxytropolones” (Medchemcomm, 2019):
The source made the active and inactive calls. The rule behind the calls is not given here.

Tested on: Human alphaherpesvirus 1
Test: Antiviral activity against HSV-1 infected in African green monkey Vero cells assessed as suppression of viral replication at 0.2 uM after 24 hrs by plaque reduction assay based phase contrast microscopy
Type: functional
Settings: not given

**Q.** Which “log(activity)” value does the source give for `COc1ccc(C(=O)c2cc(O)c(=O)c(O)cc2C)cc1` here?
**A.** 0.02

**Q.** For `Cc1cc(O)c(=O)c(O)cc1C(=O)c1ccco1`, which “log(activity)” value is on record?
**A.** -0.1

**Q.** For `Cc1cc(O)c(=O)c(O)cc1-c1cccc(-c2cccc3ccccc23)c1`, which “log(activity)” value is on record?
**A.** 0.04

**Q.** Which “log(activity)” value does the source give for `Cc1cc(O)c(=O)c(O)cc1-c1cccc(-c2ccc3ccccc3c2)c1` here?
**A.** 0.06

**Q.** For `CCCCCCCC(=O)c1cc(O)c(=O)c(O)cc1C`, which “log(activity)” value is on record?
**A.** 0.13

**Q.** For `Cc1cc(O)c(=O)c(O)cc1C(=O)c1ccc(-c2ccc3ccccc3c2)cc1`, which “log(activity)” value is on record?
**A.** 1.34

**Q.** With `Cc1cc(O)c(=O)c(O)cc1C(=O)c1cccc([N+](=O)[O-])c1` as the compound, how does the “log(activity)” value read?
**A.** 0.23

**Q.** With `Cc1cc(O)c(=O)c(O)cc1-c1ccc(-c2ccc3ccccc3c2)cc1` as the compound, how does the “log(activity)” value read?
**A.** -0.03

**Q.** For `CC(=O)c1cc(O)c(=O)c(O)cc1C`, which “log(activity)” value is on record?
**A.** inactive

**Q.** Which “log(activity)” value does the source give for `CCCCCCCCCCCC(=O)c1cc(O)c(=O)c(O)cc1C` here?
**A.** 0.29

**Q.** With `Cc1cc(O)c(=O)c(O)cc1-c1cccc(-c2ccccc2)c1` as the compound, how does the “log(activity)” value read?
**A.** 0.02

**Q.** Which “log(activity)” value does the source give for `Cc1cc(O)c(=O)c(O)cc1S(=O)(=O)c1ccccc1` here?
**A.** inactive

**Q.** For `Cc1cc(O)c(=O)c(O)cc1C(=O)c1cccc(-c2ccc3ccccc3c2)c1`, which “log(activity)” value is on record?
**A.** 0.14

**Q.** With `CCCCCCCCCC(=O)c1cc(O)c(=O)c(O)cc1C` as the compound, how does the “log(activity)” value read?
**A.** inactive

**Q.** For `Cc1cc(O)c(=O)c(O)cc1C(=O)c1ccc2ccccc2c1`, which “log(activity)” value is on record?
**A.** 0.28

**Q.** Which “log(activity)” value does the source give for `Cc1cc(O)c(=O)c(O)cc1C(=O)C(C)C` here?
**A.** inactive

Tested on: Human alphaherpesvirus 1
Test: Antiviral activity against HSV-1 infected in African green monkey Vero cells assessed as suppression of viral replication at 1 uM after 24 hrs by plaque reduction assay based phase contrast microscopy
Type: functional
Settings: not given

**Q.** Which “log(activity)” value does the source give for `COc1ccc(C(=O)c2cc(O)c(=O)c(O)cc2C)cc1` here?
**A.** 0.92

**Q.** With `Cc1cc(O)c(=O)c(O)cc1C(=O)c1ccco1` as the compound, how does the “log(activity)” value read?
**A.** 0.41

**Q.** Which “log(activity)” value does the source give for `Cc1cc(O)c(=O)c(O)cc1-c1cccc(-c2cccc3ccccc23)c1` here?
**A.** 4

**Q.** For `Cc1cc(O)c(=O)c(O)cc1-c1cccc(-c2ccc3ccccc3c2)c1`, which “log(activity)” value is on record?
**A.** 0.66

**Q.** For `CCCCCCCC(=O)c1cc(O)c(=O)c(O)cc1C`, which “log(activity)” value is on record?
**A.** 0.2

**Q.** For `Cc1cc(O)c(=O)c(O)cc1C(=O)c1ccc(-c2ccc3ccccc3c2)cc1`, which “log(activity)” value is on record?
**A.** 3.54

**Q.** Which “log(activity)” value does the source give for `Cc1cc(O)c(=O)c(O)cc1C(=O)c1cccc([N+](=O)[O-])c1` here?
**A.** 0.9

**Q.** With `Cc1cc(O)c(=O)c(O)cc1-c1ccc(-c2ccc3ccccc3c2)cc1` as the compound, how does the “log(activity)” value read?
**A.** 0.57

**Q.** Which “log(activity)” value does the source give for `CC(=O)c1cc(O)c(=O)c(O)cc1C` here?
**A.** inactive

**Q.** For `CCCCCCCCCCCC(=O)c1cc(O)c(=O)c(O)cc1C`, which “log(activity)” value is on record?
**A.** 3.23

**Q.** With `Cc1cc(O)c(=O)c(O)cc1-c1cccc(-c2ccccc2)c1` as the compound, how does the “log(activity)” value read?
**A.** 4.26

**Q.** Which “log(activity)” value does the source give for `Cc1cc(O)c(=O)c(O)cc1S(=O)(=O)c1ccccc1` here?
**A.** 0.81

**Q.** With `Cc1cc(O)c(=O)c(O)cc1C(=O)c1cccc(-c2ccc3ccccc3c2)c1` as the compound, how does the “log(activity)” value read?
**A.** 3.03

**Q.** Which “log(activity)” value does the source give for `CCCCCCCCCC(=O)c1cc(O)c(=O)c(O)cc1C` here?
**A.** 0.07

**Q.** With `Cc1cc(O)c(=O)c(O)cc1C(=O)c1ccc2ccccc2c1` as the compound, how does the “log(activity)” value read?
**A.** 3.82

**Q.** Which “log(activity)” value does the source give for `Cc1cc(O)c(=O)c(O)cc1C(=O)C(C)C` here?
**A.** inactive

Tested on: Human alphaherpesvirus 1
Test: Antiviral activity against HSV-1 infected in African green monkey Vero cells assessed as suppression of viral replication at 5 uM after 24 hrs by plaque reduction assay based phase contrast microscopy
Type: functional
Settings: not given

**Q.** With `COc1ccc(C(=O)c2cc(O)c(=O)c(O)cc2C)cc1` as the compound, how does the “log(activity)” value read?
**A.** 3.94

**Q.** For `Cc1cc(O)c(=O)c(O)cc1C(=O)c1ccco1`, which “log(activity)” value is on record?
**A.** 4.52

**Q.** With `Cc1cc(O)c(=O)c(O)cc1-c1cccc(-c2cccc3ccccc23)c1` as the compound, how does the “log(activity)” value read?
**A.** 4.02

**Q.** Which “log(activity)” value does the source give for `Cc1cc(O)c(=O)c(O)cc1-c1cccc(-c2ccc3ccccc3c2)c1` here?
**A.** 4.1

**Q.** Which “log(activity)” value does the source give for `CCCCCCCC(=O)c1cc(O)c(=O)c(O)cc1C` here?
**A.** 4.84

**Q.** For `Cc1cc(O)c(=O)c(O)cc1C(=O)c1ccc(-c2ccc3ccccc3c2)cc1`, which “log(activity)” value is on record?
**A.** 4.28

**Q.** Which “log(activity)” value does the source give for `Cc1cc(O)c(=O)c(O)cc1C(=O)c1cccc([N+](=O)[O-])c1` here?
**A.** 4.2

**Q.** Which “log(activity)” value does the source give for `Cc1cc(O)c(=O)c(O)cc1-c1ccc(-c2ccc3ccccc3c2)cc1` here?
**A.** 4.15

**Q.** For `CC(=O)c1cc(O)c(=O)c(O)cc1C`, which “log(activity)” value is on record?
**A.** 0.48

**Q.** With `CCCCCCCCCCCC(=O)c1cc(O)c(=O)c(O)cc1C` as the compound, how does the “log(activity)” value read?
**A.** 4.84

**Q.** With `Cc1cc(O)c(=O)c(O)cc1-c1cccc(-c2ccccc2)c1` as the compound, how does the “log(activity)” value read?
**A.** 4.28

**Q.** Which “log(activity)” value does the source give for `Cc1cc(O)c(=O)c(O)cc1S(=O)(=O)c1ccccc1` here?
**A.** 0.34

**Q.** Which “log(activity)” value does the source give for `Cc1cc(O)c(=O)c(O)cc1C(=O)c1cccc(-c2ccc3ccccc3c2)c1` here?
**A.** 4.11

**Q.** Which “log(activity)” value does the source give for `CCCCCCCCCC(=O)c1cc(O)c(=O)c(O)cc1C` here?
**A.** 3.78

**Q.** With `Cc1cc(O)c(=O)c(O)cc1C(=O)c1ccc2ccccc2c1` as the compound, how does the “log(activity)” value read?
**A.** 4.08

**Q.** With `Cc1cc(O)c(=O)c(O)cc1C(=O)C(C)C` as the compound, how does the “log(activity)” value read?
**A.** -0.01

Tested on: Human alphaherpesvirus 1
Test: Antiviral activity against HSV-1 infected in African green monkey Vero cells assessed as suppression of viral replication after 24 hrs by plaque reduction assay based phase contrast microscopy
Type: functional, organism-based
Settings: Human alphaherpesvirus 1, Vero

**Q.** Which EC50 does the source give for `CCCCCCCC(=O)c1cc(O)c(=O)c(O)cc1C` here?
**A.** 0.44 µM

**Q.** Which EC50 does the source give for `CC(=O)c1cc(O)c(=O)c(O)cc1C` here?
**A.** 1.2 µM

**Q.** Which EC50 does the source give for `CCCCCCCCCCCC(=O)c1cc(O)c(=O)c(O)cc1C` here?
**A.** 0.35 µM

**Q.** With `CCCCCCCCCC(=O)c1cc(O)c(=O)c(O)cc1C` as the compound, how does the EC50 read?
**A.** 1.1 µM

**Q.** Which EC50 does the source give for `Cc1cc(O)c(=O)c(O)cc1C(=O)C(C)C` here?
**A.** 26 µM

Tested on: not listed separately
Test: Cytotoxicity against African green monkey Vero cells incubated for 24 hrs by MTT assay
Type: cell-based
Settings: chlorocebus sabaeus

**Q.** Which CC50 at 24 h does the source give for `CCCCCCCC(=O)c1cc(O)c(=O)c(O)cc1C` here?
**A.** 81 µM

**Q.** Which CC50 at 24 h does the source give for `CC(=O)c1cc(O)c(=O)c(O)cc1C` here?
**A.** > 100 µM

**Q.** For `CCCCCCCCCCCC(=O)c1cc(O)c(=O)c(O)cc1C`, which CC50 at 24 h is on record?
**A.** 95 µM

**Q.** With `CCCCCCCCCC(=O)c1cc(O)c(=O)c(O)cc1C` as the compound, how does the CC50 at 24 h read?
**A.** > 100 µM

**Q.** Which CC50 at 24 h does the source give for `Cc1cc(O)c(=O)c(O)cc1C(=O)C(C)C` here?
**A.** 91 µM

Tested on: Human alphaherpesvirus 1
Test: Antiviral activity against HSV-1 infected in African green monkey Vero cells assessed as suppression of viral replication at 1 uM after 24 hrs by plaque reduction assay based phase contrast microscopy relative to control
Type: functional
Settings: not given

**Q.** Which “fold change (FC)” value does the source give for `CCCCCCCCCCCC(=O)c1cc(O)c(=O)c(O)cc1C` here?
**A.** >10

**Q.** For `Cc1cc(O)c(=O)c(O)cc1C(=O)c1ccc2ccccc2c1`, which “fold change (FC)” value is on record?
**A.** >10

Tested on: not listed separately
Test: Therapeutic index, ratio of CC50 for African green monkey Vero cells to EC50 for HSV-1 infected in African green monkey Vero cells
Type: toxicity
Settings: read-out: Ratio CC50/EC50

**Q.** With `CCCCCCCC(=O)c1cc(O)c(=O)c(O)cc1C` as the compound, how does the selectivity ratio read?
**A.** 185

**Q.** With `CC(=O)c1cc(O)c(=O)c(O)cc1C` as the compound, how does the selectivity ratio read?
**A.** > 83

**Q.** With `CCCCCCCCCCCC(=O)c1cc(O)c(=O)c(O)cc1C` as the compound, how does the selectivity ratio read?
**A.** 255

**Q.** For `CCCCCCCCCC(=O)c1cc(O)c(=O)c(O)cc1C`, which selectivity ratio is on record?
**A.** > 92

**Q.** Which selectivity ratio does the source give for `Cc1cc(O)c(=O)c(O)cc1C(=O)C(C)C` here?
**A.** 3.6
